Assays:
Format in all cases: cell-based, human
[1] = tested on: senescent myoblasts (passage 11); assay: Morphological change by microscopy; settings: CP-466722 0.1 μM, 4 weeks
Description: A human myoblast cell line (Human Skeletal Muscle Myoblasts, Lonza CC-2580 LOT:0000387550) was inoculated into a plate (Greiner Bio One, 658950), which was coated with Collagen Type I, by using an SkBM™-2 Basal Medium (Lonza CC-3246) containing SkGM™-2 SingleQuots™ Kit (Lonza CC-3244), and then, cultured in a 5% CO2 incubator at a temperature of 37° C. When the cells were grown to about 85% confluency in the plate, the cells were subjected to subculture. The early subculture was carried out at a split ratio of 1:4, and the late subculture was carried out at a split ratio of 1:2. When the cell doubling time was 14 days, the cells were considered to be senescent […] (passages 10 to 12).
The senescent cells were inoculated into each well of a Collagen Type I-coated 6-well plate (Greiner Bio One, 657950) at a concentration of 2,000 cells/well, and then, the senescent myoblasts ([…]) in a CO2 incubator at a temperature of 37° C. for 4 weeks. The medium was replaced by a fresh medium containing KU-60019 (0.5 μM), once every 4 days. In addition, as a negative control group, the cells were cultured under the same conditions as described above, except that a medium used herein contained DMSO (0.05 (v/v) %).
In FIG. 16, the myoblasts were cultured in the presence of the ATM-kinase inhibitor KU-60019 (0.5 μM), and then, the cell shapes were photographed using a microscope. […]

[2] = tested on: progeria senescent fibroblasts (passage 17); assay: ROS measurement (MitoSOX Red); settings: CP-466722 0.1 μM
Description: (§1) ROS was measured according to the protocol of the manufacturer using a 0.2 μM MitoSOX™ Red reagent (Invitrogen, M36008). In detail, 2 μL of the reagent that was stored in a 1,000-fold concentration was added to a 2 ml medium sufficiently enough to cover the cultured cells that were attached to a coverslip. While being protected from light, the cells were further incubated at a temperature of 37° C. for 30 minutes. The cultured cells were irradiated with a wavelength of 520 nm by using a FACSCaliber (Beckton Dickinson), and then, measured with radiation emitted from a wavelength of 580 nm. The results were analyzed using Cell Quest 3.2 software (Beckton Dickinson). FIG. 12 is a graph showing results of measuring ROS (A) and mitochondrial membrane potential (B) of the progeria senescent fibroblasts (passage 17) that were cultured in the presence of an ATM-kinase inhibitor KU-60019 (0.5 μM).
ROS was measured according to the protocol of the manufacturer using a 0.2 μM MitoSOX™ Red reagent (Invitrogen, M36008). […] The cultured cells were irradiated with a wavelength of 520 nm by using a FACSCaliber (Beckton Dickinson), and then, measured with radiation emitted from a wavelength of 580 nm. The results were analyzed using Cell Quest 3.2 software (Beckton Dickinson).

[3] = tested on: senescent myoblasts (passage 11); assay: ROS measurement (MitoSOX Red); settings: CP-466722 0.1 μM
Description: as §1, with “Dickinson).” for “Dickinson). FIG. 12 is a graph showing results of measuring ROS (A) and mitochondrial membrane potential (B) of the progeria senescent fibroblasts (passage 17) that were cultured in the presence of an ATM-kinase inhibitor KU-60019 (0.5 μM).”
as §1, with “by using an FACSCaliber (Beckton” for “by using a FACSCaliber (Beckton”, “(Beckton Dickinson).” for “(Beckton Dickinson). FIG. 12 is a graph showing results of measuring ROS (A) and mitochondrial membrane potential (B) of the progeria senescent fibroblasts (passage 17) that were cultured in the presence of an ATM-kinase inhibitor KU-60019 (0.5 μM).”

Q: `COc1cc2ncnc(-n3nc(-c4ccccn4)nc3N)c2cc1OC` [CP-466722, 2-(6,7-dimethoxyquinazolin-4-yl)-5-(pyridin-2-yl)-2H-1,2,4-triazol-3-amine] was tested. Which “cell number and morphology vs DMSO control” value [1] did it give?
A: exist in a great number in the presence of CP-466722 and show a spindle form

Q: And the “amount of ROS vs control” value [2]?
A: significantly decreased

Q: And the “amount of ROS (superoxide) vs control” value [3]?
A: significantly decreased
